Measured values from the supplement of paper PMC10307832.

What was measured:
Test in all cases: relative viability (nuclei count vs DMSO), 5 days (fraction); higher = more cells survive
[1] = compound: NC(=O)[C@@H](CCC(F)(F)F)N(Cc1ccc(-c2ncon2)cc1F)S(=O)(=O)c1ccc(Cl)cc1 [Avagacestat] + CS(=O)(=O)CCNCc1ccc(-c2ccc3ncnc(Nc4ccc(OCc5cccc(F)c5)c(Cl)c4)c3c2)o1 [Lapatinib] (partner 2 µM)
How it was run: (§1)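 Lung cancer cell lines in 1536-well plates got either a single drug or a fixed anchor-drug dose together with five library-drug doses (not always all listed) in √10 steps, by pin tool, on the day after seeding. Nuclei were counted after 5 days, and relative viability is the treated-to-vehicle ratio of nuclei counts. Values are medians of duplicate plates.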

[2] = compound: NC(=O)[C@@H](CCC(F)(F)F)N(Cc1ccc(-c2ncon2)cc1F)S(=O)(=O)c1ccc(Cl)cc1 [Avagacestat] + C[C@@H](Oc1cc(-c2cnn(C3CCNCC3)c2)cnc1N)c1c(Cl)ccc(F)c1Cl [Crizotinib] (partner 1 µM)
How it was run: as §1

[3] = compound: NC(=O)[C@@H](CCC(F)(F)F)N(Cc1ccc(-c2ncon2)cc1F)S(=O)(=O)c1ccc(Cl)cc1 [Avagacestat] + Cc1nc(Nc2ncc(C(=O)Nc3c(C)cccc3Cl)s2)cc(N2CCN(CCO)CC2)n1 [Dasatinib] (partner 0.075 µM)
How it was run: as §1

[4] = compound: NC(=O)[C@@H](CCC(F)(F)F)N(Cc1ccc(-c2ncon2)cc1F)S(=O)(=O)c1ccc(Cl)cc1 [Avagacestat] + Nc1nc2[nH]cc(CCc3ccc(C(=O)N[C@@H](CCC(=O)O)C(=O)O)cc3)c2c(=O)[nH]1 [Pemetrexed] (partner 0.2 µM)
How it was run: as §1

Row | Cell Line | relative viability ([1]; first compound 0.08 µM) | relative viability ([1]; first compound 0.253 µM) | relative viability ([1]; first compound 0.8 µM) | relative viability ([1]; first compound 2.53 µM) | relative viability ([1]; first compound 8 µM) | relative viability ([2]; first compound 0.08 µM) | relative viability ([2]; first compound 0.253 µM) | relative viability ([2]; first compound 0.8 µM) | relative viability ([2]; first compound 2.53 µM) | relative viability ([2]; first compound 8 µM) | relative viability ([3]; first compound 0.08 µM) | relative viability ([3]; first compound 0.253 µM) | relative viability ([3]; first compound 0.8 µM) | relative viability ([3]; first compound 2.53 µM) | relative viability ([3]; first compound 8 µM) | relative viability ([4]; first compound 0.08 µM) | relative viability ([4]; first compound 0.253 µM) | relative viability ([4]; first compound 0.8 µM) | relative viability ([4]; first compound 2.53 µM) | relative viability ([4]; first compound 8 µM)
1 | LOU-NH91 | 0.816 | 0.788 | 0.831 | 0.692 | 0.776 | 0.739 | 0.725 | 0.732 | 0.73 | 0.761 | 0.612 | 0.509 | 0.618 | 0.443 | 0.493 | 0.389 | 0.344 | 0.431 | 0.427 | 0.336
2 | HARA | 0.628 | 0.692 | 0.526 | 0.624 | 0.63 | 1.23 | 1.27 | 1.06 | 1.03 | 0.76 | 0.234 | 0.254 | 0.228 | 0.262 | 0.239 | 0.227 | 0.203 | 0.226 | 0.257 | 0.244
3 | HCC-827 | 0.197 | 0.178 | 0.177 | 0.169 | 0.191 | 0.868 | 0.85 | 0.992 | 1.03 | 0.999 | 0.313 | 0.277 | 0.226 | 0.184 | 0.244 | 0.304 | 0.271 | 0.296 | 0.221 | 0.257
4 | NCI-H1703 | 0.986 | 1.28 | 1.44 | 1.02 | 1.03 | 0.975 | 0.777 | 0.864 | 0.587 | 0.581 |  |  |  |  |  |  |  |  |  | 
5 | NCI-H2405 | 1.02 | 1.12 | 1.21 | 0.958 | 1 | 0.881 | 0.825 | 0.81 | 0.849 | 0.853 | 0.186 | 0.204 | 0.217 | 0.229 | 0.226 | 1.15 | 1.17 | 1.12 | 1.01 | 1.03
6 | PC-3 [JPC-3] | 0.485 | 0.541 | 0.472 | 0.479 | 0.475 | 1.15 | 1.25 | 1.16 | 1.05 | 0.993 | 1.17 | 1.14 | 1.16 | 0.888 | 0.843 | 1.24 | 1.36 | 1.62 | 1.25 | 1.04
7 | NCI-H2085 | 0.805 | 0.939 | 0.912 | 0.728 | 0.811 | 0.928 | 0.975 | 1 | 1.04 | 0.811 | 0.201 | 0.202 | 0.229 | 0.222 | 0.252 | 0.856 | 0.871 | 1.04 | 0.902 | 0.861
8 | 201T | 1.04 | 1.06 | 1.12 | 0.995 | 1.01 | 1.06 | 0.991 | 1.03 | 1.04 | 1.01 | 0.668 | 0.599 | 0.565 | 0.586 | 0.608 | 0.314 | 0.352 | 0.351 | 0.301 | 0.335
9 | NCI-H1975 | 0.852 | 1.1 | 1.03 | 0.935 | 0.859 | 0.989 | 1.1 | 1.1 | 0.926 | 0.905 | 0.395 | 0.478 | 0.386 | 0.402 | 0.384 | 0.312 | 0.325 | 0.316 | 0.291 | 0.308
10 | NCI-H2023 | 0.979 | 0.89 | 0.822 | 0.617 | 0.7 | 0.751 | 0.78 | 0.583 | 0.577 | 0.602 | 0.564 | 0.643 | 0.563 | 0.419 | 0.422 | 0.322 | 0.221 | 0.302 | 0.257 | 0.221
11 | BEN | 0.886 | 0.768 | 0.685 | 0.592 | 0.585 | 0.835 | 1.12 | 0.835 | 0.607 | 0.809 | 0.382 | 0.325 | 0.389 | 0.37 | 0.326 | 0.879 | 0.897 | 0.851 | 0.904 | 0.807
12 | RERF-LC-KJ | 1.12 | 0.887 | 0.871 | 0.889 | 0.751 | 0.799 | 0.839 | 0.924 | 0.792 | 0.761 | 0.974 | 0.915 | 0.776 | 0.748 | 0.664 | 0.479 | 0.477 | 0.461 | 0.465 | 0.437
13 | SK-MES-1 | 0.476 | 0.496 | 0.531 | 0.444 | 0.423 | 0.943 | 1.06 | 0.97 | 0.902 | 0.915 | 0.33 | 0.301 | 0.394 | 0.247 | 0.364 | 1.08 | 1.07 | 1.05 | 0.878 | 0.892
14 | PC-14 | 0.336 | 0.329 | 0.476 | 0.236 | 0.315 | 0.995 | 0.97 | 0.936 | 1.04 | 0.829 | 0.214 | 0.182 | 0.169 | 0.13 | 0.207 | 0.137 | 0.142 | 0.134 | 0.124 | 0.136
15 | NCI-H1437 | 1.07 | 0.972 | 0.878 | 0.69 | 0.602 | 1.14 | 1.1 | 1.12 | 1.05 | 0.824 | 0.283 | 0.278 | 0.346 | 0.291 | 0.211 | 0.336 | 0.346 | 0.329 | 0.301 | 0.298
16 | NCI-H1993 | 0.956 | 0.659 | 0.738 | 0.731 | 0.674 | 0.925 | 0.777 | 1.03 | 0.907 | 0.879 | 0.53 | 0.549 | 0.586 | 0.491 | 0.538 | 0.826 | 0.542 | 0.686 | 0.684 | 0.504
